{"source": "PubChem BioAssay AID1259409", "about": "(Chemical Carcinogenesis Research Information System (CCRIS), 2018)", "origin": "cited, not measured here", "system": "rodent chemically induced tumor inhibition, incidence and multiplicity", "test": "CCRIS tumor inhibitor studies", "data": [{"smiles": "C=Cc1c(C)c2[n-]c1=CC1=NC(=CC3=C(C)C(=C([O-])[O-])C(=N3)C(CC(=O)[O-])=C3N=C(C=2)C(C)C3CCC(=O)[O-])C(CC)=C1C.[Cu+2].[Na+].[Na+].[Na+]", "note": "(stereo not drawn)", "values": [{"measurement": "tumour outcome (control, treated, inhibition, significance)", "setting": "Carcinogen: 2,2'-DIHYDROXY-DI-N-PROPYLNITROSAMINE, 53609-64-6, N-ETHYL-N-HYDROXYETHYLNITROSAMINE, 13147-25-6, 3,2'-DIMETHYL-1,4-, Carcinogen: 2,2'-DIHYDROXY-DI-N-PROPYLNITROSAMINE, 53609-64-6, N-ETHYL-N-HYDROXYETHYLNITROSAMINE, 13147-25-6, 3,2'-DIMETHYL-1,4-, Dose [Inhibitor]: 0, 1% IN DIET FOR 4 WK BEGINNING 1 D PRIOR TO FIRST CARCINOGEN DOSE (STUDY DURATION: 36 WK), Route [Inhibitor]: ORAL, Species: RAT, Strain/Sex: F344/MALE, Target Tissue: Type of Lesion: KIDNEY: ADENOMA, Dose [Carcinogen]: 1000 MG/KG BW DHPN TWICE, 1500 MG/KG EHEN TWICE, 75 MG/KG BW DMAB 3 TIMES, SEQUENTIALLY OVER 3 WK, Promoter: NONE USED", "value": "6/10 (60%), 6/13 (46%), 23%, not significant"}, {"measurement": "tumour outcome (control, treated, inhibition, significance)", "setting": "Carcinogen: 2,2'-DIHYDROXY-DI-N-PROPYLNITROSAMINE, 53609-64-6, N-ETHYL-N-HYDROXYETHYLNITROSAMINE, 13147-25-6, 3,2'-DIMETHYL-1,4-, Carcinogen: 2,2'-DIHYDROXY-DI-N-PROPYLNITROSAMINE, 53609-64-6, N-ETHYL-N-HYDROXYETHYLNITROSAMINE, 13147-25-6, 3,2'-DIMETHYL-1,4-, Dose [Inhibitor]: 0, 1% IN DIET FOR 4 WK BEGINNING 1 D PRIOR TO FIRST CARCINOGEN DOSE (STUDY DURATION: 36 WK), Route [Inhibitor]: ORAL, Species: RAT, Strain/Sex: F344/MALE, Target Tissue: Type of Lesion: LUNG: ADENOMA, Dose [Carcinogen]: 1000 MG/KG BW DHPN TWICE, 1500 MG/KG EHEN TWICE, 75 MG/KG BW DMAB 3 TIMES, SEQUENTIALLY OVER 3 WK, Promoter: NONE USED", "value": "5/10 (50%), 8/13 (62%), -24%, not significant"}, {"measurement": "tumour outcome (control, treated, inhibition, significance)", "setting": "Carcinogen: 2-AMINO-1-METHYL-6-PHENYLIMIDAZO[4,5-B]PYRIDINE, 105650-23-5, Dose [Inhibitor]: 0, 1% IN DIET FOR 54 WK (STUDY DURATION: 54 WK), Route [Inhibitor]: ORAL, Species: RAT, Strain/Sex: F344/FEMALE, Target Tissue: Type of Lesion: COLON: ADENOMA, Dose [Carcinogen]: 0.02% IN DIET FOR 54 WK, Promoter: NONE USED", "value": "2/20 (10%), 4/20 (20%), -100%, not significant"}, {"measurement": "tumour outcome (control, treated, inhibition, significance)", "setting": "Carcinogen: 2-AMINO-1-METHYL-6-PHENYLIMIDAZO[4,5-B]PYRIDINE, 105650-23-5, Dose [Inhibitor]: 0, 1% IN DIET FOR 54 WK (STUDY DURATION: 54 WK), Route [Inhibitor]: ORAL, Species: RAT, Strain/Sex: F344/FEMALE, Target Tissue: Type of Lesion: MAMMARY GLAND: ADENOCARCINOMA, Dose [Carcinogen]: 0.02% IN DIET FOR 54 WK, Promoter: NONE USED", "value": "8/20 (40%), 3/20 (15%), 63%, not significant"}, {"measurement": "tumour outcome (control, treated, inhibition, significance)", "setting": "Carcinogen: 2-AMINO-1-METHYL-6-PHENYLIMIDAZO[4,5-B]PYRIDINE, 105650-23-5, Dose [Inhibitor]: 0, 1% IN DIET FOR 54 WK (STUDY DURATION: 54 WK), Route [Inhibitor]: ORAL, Species: RAT, Strain/Sex: F344/FEMALE, Target Tissue: Type of Lesion: MAMMARY GLAND: FIBROADENOMA, Dose [Carcinogen]: 0.02% IN DIET FOR 54 WK, Promoter: NONE USED", "value": "2/20 (10%), 0/20 (0%), 100%, not significant"}, {"measurement": "tumour outcome (control, treated, inhibition, significance)", "setting": "Carcinogen: 7,12-DIMETHYLBENZ[A]ANTHRACENE [57-97-6], Dose [Inhibitor]: 0.5% IN 0.2 ML DMSO/ACETONE (15:85) 1 D PRIOR TO CARCINOGEN DOSE (STUDY DURATION: 31 WK), Route [Inhibitor]: DERMAL, Species: MOUSE, Strain/Sex: ICR/FEMALE, Target Tissue: Type of Lesion: SKIN: TUMOR, Dose [Carcinogen]: 0.2 UMOL ONCE (STUDY DURATION: 31 WK), Promoter: 12-O-TETRADECANOYLPHORBOL-13-ACETATE [16561-29-8]", "value": "100%, 87%, 13%, not significant"}, {"measurement": "tumour outcome (control, treated, inhibition, significance)", "setting": "Carcinogen: 7,12-DIMETHYLBENZ[A]ANTHRACENE [57-97-6], Dose [Inhibitor]: 0.5% IN 0.2 ML DMSO/ACETONE (15:85) 1 D PRIOR TO CARCINOGEN DOSE AND 10 MIN PRIOR TO EACH PROMOTER DOSE FOR 30 WK (STUDY, Route [Inhibitor]: DERMAL, Species: MOUSE, Strain/Sex: ICR/FEMALE, Target Tissue: Type of Lesion: SKIN: TUMOR, Dose [Carcinogen]: 0.2 UMOL ONCE (STUDY DURATION: 31 WK), Promoter: 12-O-TETRADECANOYLPHORBOL-13-ACETATE [16561-29-8]", "value": "100%, 27%, 73%, p<0.005"}, {"measurement": "tumour outcome (control, treated, inhibition, significance)", "setting": "Carcinogen: 7,12-DIMETHYLBENZ[A]ANTHRACENE [57-97-6], Dose [Inhibitor]: 0.5% IN 0.2 ML DMSO/ACETONE (15:85) 10 MIN PRIOR TO EACH PROMOTER DOSE FOR 30 WK (STUDY DURATION: 30 WK), Route [Inhibitor]: DERMAL, Species: MOUSE, Strain/Sex: ICR/FEMALE, Target Tissue: Type of Lesion: SKIN: TUMOR, Dose [Carcinogen]: 0.2 UMOL ONCE (STUDY DURATION: 30 WK), Promoter: 12-O-TETRADECANOYLPHORBOL-13-ACETATE [16561-29-8]", "value": "100%, 40%, 60%, p<0.005"}, {"measurement": "tumour outcome (control, treated, inhibition, significance)", "setting": "Carcinogen: BENZO[A]PYRENE-7,8-DIHYDRODIOL-9,10-EPOXIDE, 58917-67-2, Dose [Inhibitor]: 0, 15 MG/KG BW ONCE 30 MIN PRIOR TO CARCINOGEN DOSE (STUDY DURATION: 24 WK), Route [Inhibitor]: GAVAGE, Species: MOUSE, Strain/Sex: ICR/FEMALE, Target Tissue: Type of Lesion: SKIN: PAPILLOMA, Dose [Carcinogen]: 0.1 UMOL ONCE, Promoter: 12-O-TETRADECANOYLPHORBOL-13-ACETATE, 16561-29-8", "value": "98%, 70%, 29%, not calculated"}, {"measurement": "tumour outcome (control, treated, inhibition, significance)", "setting": "Carcinogen: BENZO[A]PYRENE, 50-32-8, Dose [Inhibitor]: 0, 15 MG/KG BW ONCE 30 MIN PRIOR TO CARCINOGEN DOSE (STUDY DURATION: 40 WK), Route [Inhibitor]: GAVAGE, Species: MOUSE, Strain/Sex: ICR/FEMALE, Target Tissue: Type of Lesion: SKIN: PAPILLOMA, Dose [Carcinogen]: 0.3 UMOL ONCE, Promoter: 12-O-TETRADECANOYLPHORBOL-13-ACETATE, 16561-29-8", "value": "97%, 78%, 20%, not calculated"}, {"measurement": "tumour outcome (control, treated, inhibition, significance)", "setting": "Carcinogen: DIETHYLNITROSAMINE, 55-18-5, Dose [Inhibitor]: 0, 2000 PPM IN DIET FOR 4 WK DURING INITIATION (STUDY DURATION: 24 WK), Route [Inhibitor]: ORAL, Species: RAT, Strain/Sex: F344/MALE, Target Tissue: Type of Lesion: LIVER: ADENOMA, Dose [Carcinogen]: 100 MG/KG BW 1/WK FOR 3 WK, Promoter: PHENOBARBITAL, 50-06-6", "value": "95%, 70%, 26%, p<0.05"}, {"measurement": "tumour outcome (control, treated, inhibition, significance)", "setting": "Carcinogen: DIETHYLNITROSAMINE, 55-18-5, Dose [Inhibitor]: 0, 2000 PPM IN DIET FOR 4 WK DURING INITIATION (STUDY DURATION: 24 WK), Route [Inhibitor]: ORAL, Species: RAT, Strain/Sex: F344/MALE, Target Tissue: Type of Lesion: LIVER: CARCINOMA, Dose [Carcinogen]: 100 MG/KG BW 1/WK FOR 3 WK, Promoter: PHENOBARBITAL, 50-06-6", "value": "70%, 60%, 14%, not significant"}, {"measurement": "tumour outcome (control, treated, inhibition, significance)", "setting": "Carcinogen: DIETHYLNITROSAMINE, 55-18-5, Dose [Inhibitor]: 0, 2000 PPM IN DIET FOR 20 WK BEGINNING 1 WK POST CARCINOGEN TREATMENT (STUDY DURATION: 24 WK), Route [Inhibitor]: ORAL, Species: RAT, Strain/Sex: F344/MALE, Target Tissue: Type of Lesion: LIVER: ADENOMA, Dose [Carcinogen]: 100 MG/KG BW 1/WK FOR 3 WK, Promoter: NONE USED", "value": "13%, 13%, 0%, not significant"}, {"measurement": "tumour outcome (control, treated, inhibition, significance)", "setting": "Carcinogen: DIETHYLNITROSAMINE, 55-18-5, Dose [Inhibitor]: 0, 2000 PPM IN DIET FOR 20 WK BEGINNING 1 WK POST CARCINOGEN TREATMENT (STUDY DURATION: 24 WK), Route [Inhibitor]: ORAL, Species: RAT, Strain/Sex: F344/MALE, Target Tissue: Type of Lesion: LIVER: ADENOMA, Dose [Carcinogen]: 100 MG/KG BW 1/WK FOR 3 WK, Promoter: PHENOBARBITAL, 50-06-6", "value": "95%, 63%, 34%, p<0.02"}, {"measurement": "tumour outcome (control, treated, inhibition, significance)", "setting": "Carcinogen: DIETHYLNITROSAMINE, 55-18-5, Dose [Inhibitor]: 0, 2000 PPM IN DIET FOR 20 WK BEGINNING 1 WK POST CARCINOGEN TREATMENT (STUDY DURATION: 24 WK), Route [Inhibitor]: ORAL, Species: RAT, Strain/Sex: F344/MALE, Target Tissue: Type of Lesion: LIVER: CARCINOMA, Dose [Carcinogen]: 100 MG/KG BW 1/WK FOR 3 WK, Promoter: NONE USED", "value": "29%, 31%, -7%, not significant"}, {"measurement": "tumour outcome (control, treated, inhibition, significance)", "setting": "Carcinogen: DIETHYLNITROSAMINE, 55-18-5, Dose [Inhibitor]: 0, 2000 PPM IN DIET FOR 20 WK BEGINNING 1 WK POST CARCINOGEN TREATMENT (STUDY DURATION: 24 WK), Route [Inhibitor]: ORAL, Species: RAT, Strain/Sex: F344/MALE, Target Tissue: Type of Lesion: LIVER: CARCINOMA, Dose [Carcinogen]: 100 MG/KG BW 1/WK FOR 3 WK, Promoter: PHENOBARBITAL, 50-06-6", "value": "70%, 63%, 10%, not significant"}, {"measurement": "tumour outcome (control, treated, inhibition, significance)", "setting": "Dose [Inhibitor]: 0, 500 PPM IN DIET FOR 2 WK ADMINISTERED WITH CARCINOGEN (STUDY DURATION: 9 MO), Route [Inhibitor]: ORAL, Species: FISH, Strain/Sex: RAINBOW TROUT/MALE, FEMALE, Target Tissue: Type of Lesion: LIVER: TUMOR, Promoter: NONE USED", "value": "16%, 12%, 25%, p=0.29"}, {"measurement": "tumour outcome (control, treated, inhibition, significance)", "setting": "Dose [Inhibitor]: 0, 500 PPM IN DIET FOR 2 WK ADMINISTERED WITH CARCINOGEN (STUDY DURATION: 9 Mo), Route [Inhibitor]: ORAL, Species: FISH, Strain/Sex: RAINBOW TROUT/MALE, FEMALE, Target Tissue: Type of Lesion: LIVER: TUMOR, Promoter: NONE USED", "value": "7%, 3%, 57%, p=0.04"}]}]}
